Experimental data reported in the NIST ThermoML archive (doi:10.1021/je020195l).
± gives the expanded uncertainty stated by the source.

Legend:
[1] = excess molar enthalpy (molar enthalpy of mixing); xn = mol fraction of the nth substance listed; conditions: Liquid, Flow calorimetry
[2] = activity coefficient (dimensionless); of the first substance listed, at infinite dilution; xn = mol fraction of the nth substance listed; conditions: 101 kPa, Liquid, x1 = 0

CCOC(C)OCC [1,1-diethoxyethane] + C1CCCCC1
[1], 323.15 K, 1308 kPa
Conditions | excess molar enthalpy [kJ/mol]
x2 = 0.0648 | 0.113 ± 0.0027
x2 = 0.1277 | 0.212 ± 0.0048
x2 = 0.1887 | 0.298 ± 0.0066
x2 = 0.2478 | 0.369 ± 0.0081
x2 = 0.3052 | 0.429 ± 0.0094
x2 = 0.3609 | 0.477 ± 0.01
x2 = 0.415 | 0.513 ± 0.011
x2 = 0.4676 | 0.538 ± 0.012
x2 = 0.5188 | 0.551 ± 0.012
x2 = 0.5685 | 0.556 ± 0.012
x2 = 0.6169 | 0.545 ± 0.012
x2 = 0.664 | 0.528 ± 0.011
x2 = 0.7099 | 0.501 ± 0.011
x2 = 0.7546 | 0.463 ± 0.01
x2 = 0.7981 | 0.413 ± 0.009
x2 = 0.8405 | 0.355 ± 0.0078
x2 = 0.8819 | 0.285 ± 0.0063
x2 = 0.9222 | 0.201 ± 0.0046
x2 = 0.9616 | 0.109 ± 0.0026

CCOC(C)OCC [1,1-diethoxyethane] + c1ccccc1
[1], 323.15 K, 1308 kPa
Conditions | excess molar enthalpy [kJ/mol]
x2 = 0.0778 | -0.00826 ± 0.00084
x2 = 0.1511 | -0.0152 ± 0.00089
x2 = 0.2204 | -0.0202 ± 0.00094
x2 = 0.286 | -0.0238 ± 0.001
x2 = 0.3481 | -0.0258 ± 0.001
x2 = 0.4071 | -0.0268 ± 0.001
x2 = 0.4631 | -0.0268 ± 0.001
x2 = 0.5165 | -0.0259 ± 0.001
x2 = 0.5672 | -0.0242 ± 0.001
x2 = 0.6157 | -0.022 ± 0.00097
x2 = 0.6619 | -0.0188 ± 0.00092
x2 = 0.7061 | -0.0153 ± 0.00089
x2 = 0.7484 | -0.0116 ± 0.00086
x2 = 0.7889 | -0.00757 ± 0.00083
x2 = 0.8278 | -0.00294 ± 0.0008
x2 = 0.865 | 3e-05
x2 = 0.9008 | 0.00283 ± 0.0008
x2 = 0.9351 | 0.00484 ± 0.00081
x2 = 0.9682 | 0.00476 ± 0.00081

CCC(C)(OC)OC [2,2-dimethoxybutane] + C1CCCCC1
[1], 303.15 K, 1204 kPa
Conditions | excess molar enthalpy [kJ/mol]
x2 = 0.0623 | 0.108 ± 0.0026
x2 = 0.1229 | 0.197 ± 0.0045
x2 = 0.1821 | 0.281 ± 0.0062
x2 = 0.2397 | 0.353 ± 0.0078
x2 = 0.296 | 0.412 ± 0.009
x2 = 0.3509 | 0.459 ± 0.01
x2 = 0.4045 | 0.497 ± 0.011
x2 = 0.4568 | 0.523 ± 0.011
x2 = 0.5079 | 0.536 ± 0.012
x2 = 0.5578 | 0.54 ± 0.012
x2 = 0.6066 | 0.534 ± 0.012
x2 = 0.6542 | 0.516 ± 0.011
x2 = 0.7008 | 0.485 ± 0.011
x2 = 0.7464 | 0.449 ± 0.0098
x2 = 0.791 | 0.4 ± 0.0087
x2 = 0.8346 | 0.344 ± 0.0076
x2 = 0.8773 | 0.275 ± 0.0061
x2 = 0.919 | 0.196 ± 0.0044
x2 = 0.9599 | 0.108 ± 0.0026

CCC(C)(OC)OC [2,2-dimethoxybutane] + c1ccccc1
[1], 303.15 K, 1342 kPa
Conditions | excess molar enthalpy [kJ/mol]
x2 = 0.0747 | 0.0174 ± 0.00091
x2 = 0.1456 | 0.0283 ± 0.0011
x2 = 0.213 | 0.0379 ± 0.0012
x2 = 0.2772 | 0.0454 ± 0.0014
x2 = 0.3383 | 0.0537 ± 0.0015
x2 = 0.3966 | 0.059 ± 0.0016
x2 = 0.4523 | 0.063 ± 0.0017
x2 = 0.5056 | 0.0667 ± 0.0018
x2 = 0.5565 | 0.0691 ± 0.0018
x2 = 0.6053 | 0.0698 ± 0.0018
x2 = 0.6521 | 0.0692 ± 0.0018
x2 = 0.697 | 0.0677 ± 0.0018
x2 = 0.7402 | 0.0647 ± 0.0017
x2 = 0.7816 | 0.0605 ± 0.0017
x2 = 0.8215 | 0.0547 ± 0.0015
x2 = 0.8599 | 0.0468 ± 0.0014
x2 = 0.8968 | 0.0388 ± 0.0013
x2 = 0.9325 | 0.0272 ± 0.001

c1ccccc1 [benzene] + CCOC(C)OCC
[2]
Conditions | activity coefficient
293.21 K | 0.64 ± 0.05
303.16 K | 0.58 ± 0.05
313.11 K | 0.56 ± 0.05
323.13 K | 0.62 ± 0.05

C1CCCCC1 [cyclohexane] + CCOC(C)OCC
[2]
Conditions | activity coefficient
293.08 K | 1.76 ± 0.13
303.18 K | 1.72 ± 0.12
313.12 K | 1.67 ± 0.12
323.14 K | 1.64 ± 0.12
